Laboratory results taken from PubChem BioAssay (NCI).
“And” between values parts separate entries of the source, which are not always exact repeats. Equal entries are not always repeated.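 Five compound concentrations were applied to cells in 96-well plates for 48 hours; endpoints were derived by simple linear interpolation of the resulting dose-response curve. GI50 = concentration required for 50% inhibition of growth. TGI marks complete inhibition of growth.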 Where a SMILES comes first, the peptide text is derived from it. Side-chain parts run from the residue outwards. The star is where a group is joined. Cbz = O=C(OCc1ccccc1)*; Boc = CC(C)(C)OC(=O)*

Experiments:
Experiment in all cases: NCI tumour cell line growth inhibition, 48 h
[1] = test system: SN12C renal
[2] = test system: MOLT-4 leukemia
[3] = test system: M14 melanoma
[4] = test system: HT29 colon
[5] = test system: NCI-H226 lung
[6] = test system: 786-0 renal
[7] = test system: NCI-H23 lung
[8] = test system: SF-268 CNS
[9] = test system: SF-295 CNS
[10] = test system: SNB-19 CNS
[11] = test system: HOP-62 NSCLC
[12] = test system: HOP-92 NSCLC
[13] = test system: LOX IMVI melanoma
[14] = test system: TK-10 renal
[15] = test system: NCI-H460 lung
[16] = test system: OVCAR-3 ovarian

SMILES | TGI [1] [µM] | TGI [2] [µM] | TGI [3] [µM] | TGI [4] [µM] | TGI [5] | TGI [6] [µM] | TGI [7] | TGI [8] | TGI [9] | TGI [10] [µM] | TGI [11] [µM] | TGI [12] [µM] | TGI [13] [µM] | TGI [14] [µM] | TGI [15] [µM] | TGI [16] [µM] | GI50 [14] [µM] | GI50 [16] [µM]
COc1ccc(C2=C(Cl)c3cc(OC)c(OC)cc3C2)cc1OC | > 100 | > 100 | > 100 | > 100 | > 100 µM | > 100 | > 100 µM | > 100 µM | > 100 µM | > 100 | > 100 | > 100 | – | – | – | – | – | –
Cc1ccc(N=C2SC(=NN(C)C)SC2=Nc2ccc(C)cc2)cc1 | > 100 | > 100 | – | > 100 | > 100 µM | > 100 | > 100 µM | > 100 µM | > 100 µM | > 100 | > 100 | > 100 | > 100 | > 100 | > 100 | – | – | –
O=S(c1ccc(Cl)cc1)c1ccccc1C1=NCCN1 (stereo not drawn) | > 100 | > 100 | > 100 | > 100 | > 100 µM | > 100 | > 100 µM | > 100 µM | > 100 µM | > 100 | > 100 | – | – | > 100 | > 100 | > 100 | – | –
COc1ccc(C2=NNC(c3cc4cc(Br)ccc4nc3Cl)C2)cc1 (stereo not drawn) | > 25 | > 25 | > 25 | > 25 | 11.8 µM | > 25 | > 25 µM | – | – | – | – | > 25 | – | – | > 25 | > 25 | – | –
Cc1c2oc3c(C)cc(F)c(C(=O)NC4C(=O)NC(C(C)C)C(=O)N5CCCC5C(=O)N(C)CC(=O)N(C)C(C(C)C)C(=O)OC4C)c3nc-2c(C(=O)NC2C(=O)NC(C(C)C)C(=O)N3CCCC3C(=O)N(C)CC(=O)N(C)C(C(C)C)C(=O)OC2C)c(N)c1=O (stereo not drawn) | > 100 | 0.00545 | – | – | 0.625 µM and 0.346 µM | 78.5 | 0.897 µM and 6.26 µM | 4.21 µM and 15.3 µM | 2.32 µM and 4.16 µM | 21.1 | – | 0.887 | 0.159 | – | 13.5 | – | 1.07 | 0.171
COc1cc(C(O)C(=O)c2cnc3cc([N+](=O)[O-])ccc3n2)ccc1O (stereo not drawn) | > 100 | > 100 | > 100 | > 100 | – | > 100 | – | – | > 100 µM | > 100 | > 100 | – | > 100 | > 100 | > 100 | – | – | –
CC(C)(C)OC(=O)NC(CCCCNC(=O)CNC(=O)OCc1ccccc1)C(=O)NC(CCCCNC(=O)CNC(=O)OCc1ccccc1)C(=O)NC(CCCCNC(=O)CNC(=O)OCc1ccccc1)C(=O)NC(CCCCNC(=O)CNC(=O)OCc1ccccc1)C(=O)O (stereo not drawn) (Boc-K([Gly-Cbz])K([Gly-Cbz])K([Gly-Cbz])K([Gly-Cbz])-OH; configuration not given here) | > 100 | > 100 | > 100 | > 100 | > 100 µM | > 100 | > 100 µM | > 100 µM | – | > 100 | > 100 | – | > 100 | > 100 | > 100 | > 100 | – | –
COc1cc([C@@H]2c3cc4c(cc3[C@@H](c3c(O)cc(O)c5c3O[C@H](c3ccc(O)c(O)c3)[C@H](OC(=O)c3cc(O)c(O)c(O)c3)C5)[C@H]3COC(=O)[C@H]23)OCO4)cc(OC)c1O | > 100 | > 100 | 64.2 | 65.3 | – | > 100 | > 100 µM | > 100 µM | > 100 µM | > 100 | > 100 | > 100 | > 100 | > 100 | > 100 | > 100 | – | –
